Laboratory results published in US20180296532A1, “RNA-Focused Small Molecules for Inhibiting RNA Toxicity in Myotonic Dystrophy” (The Scripps Research Institute, priority 2015, published 2018).

Columns and labels:
[1] = tested on: DM1 patient derived fibroblasts containing 500 CUG repeats; test: MBNL1 pre-mRNA splicing defects in DM1 patient derived fibroblasts; format: cell-based; settings: 300 and 200 μM, 48 h
Protocol: Bioactivity of 2GN8 was further assessed using DM1 patient derived fibroblasts containing 500 CUG repeats. First 2GN8 was evaluated for improvement of DM1 MBNL1 splicing defects. In DM1, mis-splicing of MBNL1 exon 5 results in an increase in inclusion to ˜30% compared to ˜15% inclusion in healthy tissue.
Bioactivity of 2GN8 was assessed by using DM1 patient derived fibroblasts containing 500 CTG repeats (GM03987) and healthy fibroblasts (GM07492). Cells were grown as monolayers in 6 well plates in growth medium (1×EMEM (Lonza), 10% FBS, 1× glutagro (Corning), 1×MEM non-essential amino acids (Corning) and 1× antibiotic/antimycotic (Corning)). Once cells were ˜80% confluent, they were treated with growth medium containing 2GN8 (300, 200 and 100 μM). After 48 h the cells were lysed and the total RNA was harvested using a Zymo Quick RNA miniprep kit. An on-column DNA digestion was completed per the manufacturer's recommended protocol. Approximately 100 ng of total RNA was reverse transcribed at 50° C. using 100 units of SuperScript III reverse transcriptase (Life Technologies). Then 20% of the RT reaction was subjected to PCR using GoTaq DNA polymerase. RT-PCR products were observed after 25 cycles of 95° C. for 30 s, 58° C. for 30 s, 72° C. for 1 min and a final extension at 72° C. for 1 min. The products were separated on an 2% agarose gel ran at 100 V for 1 h in 1×TAE buffer. […]

[2] = tested on: r(CUG)^exp-containing nuclear foci; test: Nuclear foci by fluorescence in situ hybridization (FISH) in DM1 patient derived fibroblasts; format: cell-based; settings: 300 and 200 μM, 48 h; untreated cells ˜5
Text: Bioactivity of 2GN8 was further assessed in DM1 patient derived fibroblasts for the disruption of nuclear foci. As observed in other microsatellite disorders, the binding of various proteins to r(CUG)^exp causes formation of nuclear foci.^(55) Fluorescence in situ hybridization (FISH) with a dye-labeled oligonucleotide was used to determine if 2GN8 disrupts r(CUG)^exp-containing nuclear foci. In untreated cells, the average number of foci per cell is ˜5. Treatment with 2GN8 reduces the average number of foci per cell to less than 1 at 300 and 200 μM (FIG. 11).
FISH was utilized to determine the effects of 2GN8 on the formation and disruption of nuclear foci. DM1 patient derived fibroblasts containing 500 CTG repeats (GM03987) were grown to ˜80% confluence in a Mat-Tek 96-well glass bottom plate in growth medium. Cells were treated with 2GN8 (300, 200 and 100 μM) for 48 h in growth medium followed by FISH as previously described(63) using 1 ng/μL DY547-2′OMe-(CAG)6. Immunostaining of MBNL1 was completed as previously described(65) using the MB1a antibody (diluted 1:4), which was generously supplied by Prof. […]

HSA^LR mice = test: Myotonia grade in HSA^LR mouse model of DM1; format: in vivo; settings: 40 mg/kg/day; compared to untreated mice
Text: A mouse model of DM1 has been reported in which 250 rCUG repeats are expressed using an actin promoter (human skeletal actin long repeat, HSA^LR).^24 The presence of these repeats results in dysregulation of alternative splicing in the muscle-specific chloride ion channel (Clcn1) and the sarcoplasmic/endoplasmic reticulum calcium ATPase 1 (Serca1/Atp2a1) pre-mRNAs. Clcn1 exon 7a is excluded ˜100% in mRNA from normal adult mice: DM1 mice have an exclusion rate of ˜50% (FIG. 12A).

SMILES: N=C(N)Nc1ccc2nc(-c3ccc(-c4nc5ccc(NC(=N)N)cc5[nH]4)cc3)[nH]c2c1 [Compound 2GN8]
- improvement of MBNL1 pre-mRNA splicing defects (exon 5 inclusion) [1]: substantially improves
- average number of foci per cell [2]: less than 1
- myotonia grade in quadriceps and gastrocnemius muscles (HSA^LR mice): improved myotonia grade
